Measured values as given in patent US20120020940A1, “ANTIMICROBIAL PEPTIDES” (Helmholtz Zentrum München Deutsches Forschungszentrum Für …, priority 2008, published 2012).
No end group written: not given here.

Tests used:
Format in all cases: cell-based
Alternaria alternata = test: MIC, antifungal in-vitro inhibition assay (Example 2); conditions: Table 1
Experimental: (§1) In-vitro inhibition assays were performed in sterile flat-bottom 96-well plates (Greiner bio-one, Frickenhausen). Antimicrobial peptides were dissolved in 0.01% acetic acid containing 0.2% BSA (500 μg/ml), filter sterilized and stored at −20° C. For inhibition assays dilutions of peptides ranging from 5 to 200 μg/ml were prepared and 10 μl (antibacterial assay) or 20 μl (antifungal assay) of each concentration was loaded per well.
(§2) Spores of fungi were collected by water washes of sporulating cultures grown on 2% malt extract agar and spore concentration was determined by microscopy. The concentration of the spores was adjusted to 1.5-2×10^3 spores/ml in 2% malt extract medium and 80 μl of fungal spores were added per well. The final peptide concentrations used in the fungal inhibition assays were […]. After overnight incubation at room temperature the plate were put on a rotary shaker (300 rpm) for further two days to ensure consistantly growth. Antifungal effects of the peptides were determined by a microplate reader (Alternaria, Fusarium) at OD590 nm or by visual screening of the plates (Botrytis, Cladosporium).
(§3) The lowest peptide concentration leading to complete inhibition of bacterial growth or spore germination/mycelial growth (minimal inhibition concentration, MIC) was determined for each organism-peptide combination. For each peptide concentration two identical inhibition assays were performed.

Botrytis cinerea = test: as above; conditions: Table 1
Experimental: as §1, §2, §3

Cladosporium herbarum = test: as above; conditions: Table 1
Experimental: as §1, §2, §3

[1] = system: Clavibacter michiganensis; test: MIC and lethal concentration (Example 3); conditions: Table 2; for MIC (>90% inhibition): 1-2 days at 25° C.; for LC, lethal concentration (100% inhibition): at least 4 days of incubation
Experimental: as §1
(§4) Bacteria colonies from overnight agar plate cultures were resuspended into 5 ml LB-medium or HPG-medium (OD600 nm=0.08-0.1) and diluted into LB-medium/HPG-medium (1:100). 90 μl of this suspension containing about 10^5-10^6 CFU/ml of tested bacteria were added to each well resulting in final peptide concentrations of 0, 0.5, 1, 2, 5, 10, and 20 μg/ml. […] The lowest concentration, in which there is no observable growth (>90% inhibition) is referred to as minimal inhibitory concentration (MIC). […] For each peptide concentration two identical inhibition assays were performed.

[2] = system: Pectobacterium carotovorum; test: MIC and lethal concentration (Example 3); conditions: Table 2; for MIC (>90% inhibition): 1-2 days at 25° C.; for LC, lethal concentration (100% inhibition): at least 4 days of incubation
Experimental: as §1, §4

Pseudomonas corrugata = test: MIC and lethal concentration (Example 3); conditions: Table 2; for MIC (>90% inhibition): 1-2 days at 25° C.; for LC, lethal concentration (100% inhibition): at least 4 days of incubation
Experimental: as §1, §4

[3] = system: Pseudomonas syringae pv. syringae; test: MIC and lethal concentration (Example 3); conditions: Table 2; for MIC (>90% inhibition): 1-2 days at 25° C.; for LC, lethal concentration (100% inhibition): at least 4 days of incubation
Experimental: as §1, §4

[4] = system: Pseudomonas syringae pv. tomato; test: MIC and lethal concentration (Example 3); conditions: Table 2; for MIC (>90% inhibition): 1-2 days at 25° C.; for LC, lethal concentration (100% inhibition): at least 4 days of incubation
Experimental: as §1, §4

Xanthomonas vesicatoria = test: MIC and lethal concentration (Example 3); conditions: Table 2; for MIC (>90% inhibition): 1-2 days at 25° C.; for LC, lethal concentration (100% inhibition): at least 4 days of incubation
Experimental: as §1, §4

| Substance | Minimal inhibition concentration (MIC) for complete inhibition of spore germination/mycelial growth (Alternaria alternata) [µg/mL] | Minimal inhibition concentration (MIC) for complete inhibition of spore germination/mycelial growth (Botrytis cinerea) [µg/mL] | Minimal inhibition concentration (MIC) for complete inhibition of spore germination/mycelial growth (Cladosporium herbarum) [µg/mL] | MIC (>90% inhibition) [1] | LC, lethal concentration (100% inhibition) [1] | MIC (>90% inhibition) [2] | LC, lethal concentration (100% inhibition) [2] | MIC (>90% inhibition) (Pseudomonas corrugata) | MIC (>90% inhibition) [3] | LC, lethal concentration (100% inhibition) [3] | MIC (>90% inhibition) [4] | LC, lethal concentration (100% inhibition) [4] | MIC (>90% inhibition) (Xanthomonas vesicatoria) | LC, lethal concentration (100% inhibition) (Xanthomonas vesicatoria) | LC, lethal concentration (100% inhibition) (Pseudomonas corrugata) |
| --- | --- | --- | --- | --- | --- | --- | --- | --- | --- | --- | --- | --- | --- | --- | --- |
| LRALAKALKHKL-NH2 [SP11, LRALAKALKHKL -NH2] | >100 | >100 | 20 |  |  |  |  |  |  |  |  |  |  |  |  |
| LRFAKKALKKLF-NH2 [SP10-3] |  |  |  | 2.5/2.5 μg/ml | 2.5/2.5 μg/ml | >10/>10 μg/ml | >10/>10 μg/ml | 1.0 µg/mL | 0.25 µg/mL | 2.5 µg/mL | 0.25/0.25 μg/ml | 0.25/0.25 μg/ml | 2.5/2.5 μg/ml | 2.5/2.5 μg/ml |  |
| LRFARRALRRLF-NH2 [SP10-9] |  |  |  | 1.0/1.0 μg/ml | 1.0/1.0 μg/ml | 2.5 µg/mL | 5.0 µg/mL | 0.5 µg/mL | 0.25 µg/mL | 2.5 µg/mL | 0.25 µg/mL | 0.5 µg/mL | 1.0 µg/mL | 2.5 µg/mL | 2.5 µg/mL |
| LRFIKKILKKLI-NH2 [SP10-4] |  |  |  | 0.25/0.25 μg/ml | 0.25/0.25 μg/ml | 2.5/2.5 μg/ml | 2.5/2.5 μg/ml | 2.5/2.5 μg/ml | 0.25 µg/mL | 0.5 µg/mL | 1.0/1.0 μg/ml | 1.0/1.0 μg/ml | 0.1 µg/mL | 0.25 µg/mL | 2.5/2.5 μg/ml |
| LRFLKKILKKLF-NH2 [SP10-1] |  |  |  | 1.0 µg/mL | 2.5 µg/mL | 2.5 µg/mL | 5.0 µg/mL | 2.5/2.5 μg/ml | 2.5/2.5 μg/ml | 2.5/2.5 μg/ml | 1.0/1.0 μg/ml | 1.0/1.0 μg/ml | 2.5/2.5 μg/ml | 2.5/2.5 μg/ml | 2.5/2.5 μg/ml |
| LRFLRRILRRLL-NH2 [SP10-8] |  |  |  | 0.5/0.5 μg/ml | 0.5/0.5 μg/ml | 2.5 µg/mL | 5.0 µg/mL | 0.5 µg/mL | 0.5/0.5 μg/ml | 0.5/0.5 μg/ml | 1.0/1.0 μg/ml | 1.0/1.0 μg/ml | 0.5/0.5 μg/ml | 0.5/0.5 μg/ml | 1.0 µg/mL |
| LRIIKKILKKLI-NH2 [SP10-5] |  |  |  | 0.5/0.5 μg/ml | 0.5/0.5 μg/ml | 2.5 µg/mL | 10 µg/mL | 0.5 µg/mL | 0.5/0.5 μg/ml | 0.5/0.5 μg/ml | 0.25 µg/mL | 0.5 µg/mL | 0.25 µg/mL | 0.5 µg/mL | 2.5 µg/mL |
| LRIIRRILRRLI-NH2 [SP10-6] |  |  |  | 2.5/2.5 μg/ml | 2.5/2.5 μg/ml | 2.5 µg/mL | 5.0 µg/mL | 2.5/2.5 μg/ml | 2.5/2.5 μg/ml | 2.5/2.5 μg/ml | 1.0/1.0 μg/ml | 1.0/1.0 μg/ml | 1.0/1.0 μg/ml | 1.0/1.0 μg/ml | 2.5/2.5 μg/ml |
| LRILRRLLRRLF-NH2 [SP10-7] |  |  |  | 5.0/5.0 μg/ml | 5.0/5.0 μg/ml | >10/>10 μg/ml | >10/>10 μg/ml | 2.5/2.5 μg/ml | >10/>10 μg/ml | >10/>10 μg/ml | 0.5 µg/mL | 1.0 µg/mL | 5.0s/5.0^ μg/ml | 5.0s/5.0^ μg/ml | 2.5/2.5 μg/ml |
